# Data published in ChEMBL document CHEMBL1152067, “Design and syntheses of 4-acylaminopyridine derivatives: Novel high affinity choline uptake enhancers I” (Bioorg Med Chem Lett, 1995).
# How the values were obtained:
# Conditions in all cases: Hippocampus
# [1] = biological target: High-affinity choline transporter 1 (Rattus norvegicus) (UniProt Q9JMD7); test: Effect on uptake amount of [3H]choline in the hippocampal synaptosomes of AF64A-treated rats at a concentration of 10e-5 M.
# [2] = biological target: High-affinity choline transporter 1 (Rattus norvegicus) (UniProt Q9JMD7); test: Effect on uptake amount of [3H]choline in the hippocampal synaptosomes of AF64A-treated rats at a concentration of 10e-6 M.
# [3] = biological target: High-affinity choline transporter 1 (Rattus norvegicus) (UniProt Q9JMD7); test: Effect on uptake amount of [3H]choline in the hippocampal synaptosomes of AF64A-treated rats at a concentration of 10e-7 M.
# Sequence of High-affinity choline transporter 1 (Rattus norvegicus) (Q9JMD7 whole entry, looked up): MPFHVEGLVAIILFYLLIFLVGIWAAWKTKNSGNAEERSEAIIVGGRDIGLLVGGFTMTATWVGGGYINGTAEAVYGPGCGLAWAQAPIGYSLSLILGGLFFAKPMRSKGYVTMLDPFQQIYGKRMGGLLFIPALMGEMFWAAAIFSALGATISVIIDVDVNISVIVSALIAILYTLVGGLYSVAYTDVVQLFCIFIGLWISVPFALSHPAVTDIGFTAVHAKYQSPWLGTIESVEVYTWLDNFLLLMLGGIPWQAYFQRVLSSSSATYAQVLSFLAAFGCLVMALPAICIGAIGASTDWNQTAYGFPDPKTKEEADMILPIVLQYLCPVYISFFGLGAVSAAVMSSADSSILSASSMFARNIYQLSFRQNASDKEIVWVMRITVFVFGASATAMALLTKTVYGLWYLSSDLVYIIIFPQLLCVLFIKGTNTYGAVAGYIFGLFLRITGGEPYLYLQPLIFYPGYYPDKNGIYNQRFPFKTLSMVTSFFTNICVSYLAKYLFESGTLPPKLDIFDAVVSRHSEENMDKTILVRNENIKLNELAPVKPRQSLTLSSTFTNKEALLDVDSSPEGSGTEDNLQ
HACU improvement [1] [%],HACU improvement [2] [%],HACU improvement [3] [%],SMILES
28,24,13,CCCC(=O)Nc1c2c(nc3ccccc13)CCCC2
11,2,4,CC1C(=O)NC(=O)N1CC(=O)Nc1c2c(nc3ccccc13)CCCC2 (stereo not given)
15,9,12,CC(C)C(=O)Nc1c2c(nc3ccccc13)CCCC2
3,1,3,CCC(=O)Nc1c2c(nc3ccccc13)CCCC2
18,-1,-2,CCCCC(=O)Nc1c2c(nc3ccccc13)CCCC2
-13,8,8,Nc1c2c(nc3ccccc13)CCCC2
10,11,15,O=C1CN(CC(=O)Nc2c3c(nc4ccccc24)CCCC3)C(=O)N1
0,-22,4,CC(C)CC(=O)Nc1c2c(nc3ccccc13)CCCC2
13,6,-7,CC(NCC(=O)Nc1c2c(nc3ccccc13)CCCC2)C(=O)O (stereo not given)
48,14,6,O=C(Cn1ccnc1)Nc1c2c(nc3ccccc13)CCCC2
-7,-13,0,CN(C)CC(=O)Nc1c2c(nc3ccccc13)CCCC2
16,0,-5,O=C(CN1C(=O)CNC1=O)Nc1c2c(nc3ccccc13)CCCC2
5,2,-3,O=C(CN1CCCCC1=O)Nc1c2c(nc3ccccc13)CCCC2
13,14,17,O=C(CN1CCCC1=O)Nc1c2c(nc3ccccc13)CCCC2
25,1,6,O=C(CN1CCNC1=O)Nc1c2c(nc3ccccc13)CCCC2
-71,-20,1,O=C(CN1CCCC1)Nc1c2c(nc3ccccc13)CCCC2
2,5,11,CCCCCC(=O)Nc1c2c(nc3ccccc13)CCCC2
21,18,8,CNCC(=O)Nc1c2c(nc3ccccc13)CCCC2
27,-2,-4,O=C(O)CNCC(=O)Nc1c2c(nc3ccccc13)CCCC2
-11,-10,-12,CC(=O)Nc1c2c(nc3ccccc13)CCCC2
